# Legend:
# Assay type in all cases: biochemical
# JAK3 = molecular target: T1, JAK3 (Homo sapiens, UniProt P52333); experiment: JAK3 Inhibition Assay (Omnia kinase fluorescence peptide substrate assay); settings: averaged IC50 ranges; assay of Example D; 10 μM (Km app) or 1 mM ATP, 2.5 nM JAK3
# T1 construct: purchased Invitrogen Corporation, Carlsbad, Calif; PV4080
# T1 sequence (P52333 1-1124): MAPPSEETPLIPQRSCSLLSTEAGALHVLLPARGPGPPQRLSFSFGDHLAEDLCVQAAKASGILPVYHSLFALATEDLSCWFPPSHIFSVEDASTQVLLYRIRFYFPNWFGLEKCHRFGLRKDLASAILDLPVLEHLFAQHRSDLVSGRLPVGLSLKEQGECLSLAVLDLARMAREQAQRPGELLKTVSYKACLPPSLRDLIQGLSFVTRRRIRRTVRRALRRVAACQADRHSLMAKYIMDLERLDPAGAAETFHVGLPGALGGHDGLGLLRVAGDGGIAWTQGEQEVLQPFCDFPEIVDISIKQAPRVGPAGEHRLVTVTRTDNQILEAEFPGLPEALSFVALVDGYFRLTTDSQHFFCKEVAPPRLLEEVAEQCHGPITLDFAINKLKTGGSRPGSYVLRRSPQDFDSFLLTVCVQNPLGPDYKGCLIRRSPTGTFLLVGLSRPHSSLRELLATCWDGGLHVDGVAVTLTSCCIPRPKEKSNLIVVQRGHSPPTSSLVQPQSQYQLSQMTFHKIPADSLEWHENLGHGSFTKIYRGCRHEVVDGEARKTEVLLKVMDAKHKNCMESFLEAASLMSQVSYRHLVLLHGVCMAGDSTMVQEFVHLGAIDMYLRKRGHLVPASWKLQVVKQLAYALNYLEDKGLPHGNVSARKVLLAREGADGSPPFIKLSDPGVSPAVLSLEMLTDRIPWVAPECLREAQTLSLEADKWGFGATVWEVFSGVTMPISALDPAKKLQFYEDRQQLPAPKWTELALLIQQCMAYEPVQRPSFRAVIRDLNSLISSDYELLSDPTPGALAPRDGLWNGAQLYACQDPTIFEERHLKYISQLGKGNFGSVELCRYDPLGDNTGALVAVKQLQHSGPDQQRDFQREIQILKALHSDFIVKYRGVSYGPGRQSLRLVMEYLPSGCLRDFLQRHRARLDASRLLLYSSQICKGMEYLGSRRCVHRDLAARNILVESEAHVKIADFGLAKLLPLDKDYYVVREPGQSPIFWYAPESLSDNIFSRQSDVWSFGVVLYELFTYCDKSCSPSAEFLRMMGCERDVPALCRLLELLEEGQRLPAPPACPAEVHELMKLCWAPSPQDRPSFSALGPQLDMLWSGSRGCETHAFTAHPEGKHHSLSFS
# Summary of the method: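 Kinase at 2.5 nM with 10 µM Omnia Y7 peptide and 10 µM (Km app) or 1 mM ATP in 25 mM HEPES pH 7.4, 10 mM MgCl2, 1 mM DTT, 0.01% Triton X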
# JAK1 = molecular target: T2, JAK1 (Homo sapiens, UniProt P23458); experiment: JAK1 Inhibition Assay (Omnia kinase fluorescence peptide substrate assay); settings: averaged IC50 ranges; assay of Example B; 40 μM (Km app) or 1 mM ATP, 15 nM JAK1
# T2 construct: purchased Invitrogen Corporation, Carlsbad, Calif; PV4775
# Human Tyk2 kinase domain = molecular target: T3, Human Tyk2 kinase domain (Homo sapiens, UniProt P29597); experiment: Tyk2 Inhibition Assay (Omnia kinase fluorescence peptide substrate assay); settings: averaged IC50 ranges; assay of Example A; 10 μM (Km app) or 1 mM ATP, 2 nM Tyk2
# T3 construct: comprising amino acids 886 to 1187 with 10 additional histidine residues; 10xHis (histidine tag) (C, cleaved yes); made in house
# T3 sequence (P29597 886-1187): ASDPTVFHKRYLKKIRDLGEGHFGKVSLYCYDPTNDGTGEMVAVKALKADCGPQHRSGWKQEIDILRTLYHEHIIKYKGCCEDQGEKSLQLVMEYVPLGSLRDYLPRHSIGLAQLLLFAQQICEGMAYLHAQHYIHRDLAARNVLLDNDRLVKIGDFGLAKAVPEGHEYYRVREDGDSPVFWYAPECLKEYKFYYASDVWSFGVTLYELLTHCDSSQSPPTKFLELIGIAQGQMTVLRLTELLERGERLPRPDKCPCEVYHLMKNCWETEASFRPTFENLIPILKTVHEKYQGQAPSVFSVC
# Summary of the method: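 2 nM His-tag-cleaved kinase domain (aa 886–1187) with 8 μM Omnia Y12 peptide, 10 μM (Km app) or 1 mM ATP, pH 7.4 HEPES/10 mM MgCl2, 2% DMSO. Fluorescence (ex 360/em 485 nm) every 50 s for 45 min; IC50 from 4-parameter fit of POC, top dose 10 μM.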
# JAK2 = molecular target: T4, JAK2 (Homo sapiens, UniProt O60674); experiment: JAK2 Inhibition Assay (Omnia kinase fluorescence peptide substrate assay); settings: averaged IC50 ranges; assay of Example C; 25 μM (Km app) or 1 mM ATP, 5 nM JAK2
# T4 construct: purchased Invitrogen Corporation, Carlsbad, Calif; PV4288
# Summary of the method: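 5 nM JAK2 phosphorylated 10 μM Omnia Y7 peptide with ATP at 25 μM (Km app) or 1 mM, in 25 mM HEPES pH 7.4, 10 mM MgCl2, 0.01% Triton X-100, 1 mM DTT, 2% DMSO. Fluorescence (360/485 nm) was read every 50 s for 45 min. 10-point 3-fold series from 10 μM; POC versus uninhibited and background controls, 4-parameter logistic IC50.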
# T2 sequence (P23458 whole entry): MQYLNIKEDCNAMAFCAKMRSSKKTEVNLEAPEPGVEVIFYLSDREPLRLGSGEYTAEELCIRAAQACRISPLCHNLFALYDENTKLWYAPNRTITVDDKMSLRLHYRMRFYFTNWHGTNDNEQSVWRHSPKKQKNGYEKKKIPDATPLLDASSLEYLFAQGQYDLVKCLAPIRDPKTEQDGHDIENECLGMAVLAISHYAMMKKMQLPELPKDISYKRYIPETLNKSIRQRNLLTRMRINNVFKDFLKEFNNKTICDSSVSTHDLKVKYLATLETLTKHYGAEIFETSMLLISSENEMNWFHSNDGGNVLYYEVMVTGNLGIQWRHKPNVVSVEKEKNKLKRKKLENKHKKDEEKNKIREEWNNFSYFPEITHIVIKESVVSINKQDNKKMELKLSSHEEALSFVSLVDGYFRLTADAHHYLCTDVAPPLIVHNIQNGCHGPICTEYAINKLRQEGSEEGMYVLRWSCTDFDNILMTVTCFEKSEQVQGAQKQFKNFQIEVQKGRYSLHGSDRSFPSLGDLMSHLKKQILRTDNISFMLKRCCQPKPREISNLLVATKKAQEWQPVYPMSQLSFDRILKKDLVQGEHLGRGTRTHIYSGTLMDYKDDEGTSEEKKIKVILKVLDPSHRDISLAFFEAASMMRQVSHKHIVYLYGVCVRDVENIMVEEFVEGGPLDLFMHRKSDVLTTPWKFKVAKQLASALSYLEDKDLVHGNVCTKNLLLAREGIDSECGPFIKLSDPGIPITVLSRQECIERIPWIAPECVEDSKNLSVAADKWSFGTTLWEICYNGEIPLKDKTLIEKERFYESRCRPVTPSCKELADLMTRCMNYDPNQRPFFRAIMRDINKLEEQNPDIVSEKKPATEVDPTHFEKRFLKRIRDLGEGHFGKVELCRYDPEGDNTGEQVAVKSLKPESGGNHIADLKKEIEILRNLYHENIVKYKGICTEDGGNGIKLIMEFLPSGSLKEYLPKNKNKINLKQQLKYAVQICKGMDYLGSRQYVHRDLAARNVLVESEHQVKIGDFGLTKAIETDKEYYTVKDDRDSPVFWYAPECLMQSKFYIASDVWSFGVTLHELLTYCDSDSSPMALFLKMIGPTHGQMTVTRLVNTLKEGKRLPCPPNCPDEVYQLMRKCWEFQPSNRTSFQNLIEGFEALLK
# T4 sequence (O60674 whole entry): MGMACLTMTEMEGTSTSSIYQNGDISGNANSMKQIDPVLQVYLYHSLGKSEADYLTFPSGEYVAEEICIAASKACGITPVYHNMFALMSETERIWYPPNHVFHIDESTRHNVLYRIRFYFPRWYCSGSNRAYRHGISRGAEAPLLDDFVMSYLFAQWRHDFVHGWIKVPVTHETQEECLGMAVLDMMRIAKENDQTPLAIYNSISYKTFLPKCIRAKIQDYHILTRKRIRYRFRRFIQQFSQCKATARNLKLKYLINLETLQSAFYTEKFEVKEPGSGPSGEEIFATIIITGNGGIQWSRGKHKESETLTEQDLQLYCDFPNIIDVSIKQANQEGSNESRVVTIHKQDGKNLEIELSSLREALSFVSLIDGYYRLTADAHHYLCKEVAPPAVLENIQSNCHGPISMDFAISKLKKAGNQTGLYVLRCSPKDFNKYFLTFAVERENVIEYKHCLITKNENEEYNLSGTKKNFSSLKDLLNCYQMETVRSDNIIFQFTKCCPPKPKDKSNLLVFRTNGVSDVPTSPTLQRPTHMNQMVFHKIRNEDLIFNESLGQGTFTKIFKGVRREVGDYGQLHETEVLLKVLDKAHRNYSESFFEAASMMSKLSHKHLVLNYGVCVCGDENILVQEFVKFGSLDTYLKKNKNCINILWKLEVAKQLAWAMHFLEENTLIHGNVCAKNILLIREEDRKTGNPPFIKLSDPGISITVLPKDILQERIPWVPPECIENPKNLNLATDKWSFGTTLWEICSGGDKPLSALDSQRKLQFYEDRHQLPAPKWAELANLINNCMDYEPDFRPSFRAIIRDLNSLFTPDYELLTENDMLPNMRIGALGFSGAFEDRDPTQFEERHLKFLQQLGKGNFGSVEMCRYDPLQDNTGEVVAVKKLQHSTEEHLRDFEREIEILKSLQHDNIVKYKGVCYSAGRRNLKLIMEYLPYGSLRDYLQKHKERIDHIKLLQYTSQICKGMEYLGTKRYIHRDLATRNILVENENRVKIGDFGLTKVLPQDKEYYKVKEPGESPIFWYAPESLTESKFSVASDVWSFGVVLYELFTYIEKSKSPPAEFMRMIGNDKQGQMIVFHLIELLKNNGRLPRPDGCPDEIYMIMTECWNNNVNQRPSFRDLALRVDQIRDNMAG
smiles,measurement,setting,value
"CC(C)(C)NC(=O)c1cc2nccn2c(-c2cnn(C(CC#N)C3CC3)c2)n1 (stereo not shown) [Example 122, N-tert-butyl-5-(1-(2-cyano-1-cyclopropylethyl)-1H-pyrazol-4-yl)imidazo[1,2-c]pyrimidine-7-carboxamide]",IC50,JAK3,> 1000 nM
same,IC50,JAK1,> 1000 nM
same,IC50,Human Tyk2 kinase domain,100 to 1000 nM
same,IC50,JAK2,> 1000 nM

# — patent US8962596B2 (Array BioPharma Inc., priority 2010, dated 2015)
